Reference: patent US20260109707A1, “HETEROBIFUNCTIONAL COMPOUNDS AND METHODS OF TREATING DISEASE” (Halda Therapeutics OpCo. Inc., priority 2022, published 2026)
Like-named read-outs stand apart in the source and are kept apart here.

Assays:
[1] = tested on: T-Rex 293 cell line SC3 cells having increased expression of androgen receptor protein due to exposure to doxycycline; test: Cellular growth inhibition assay, T-Rex 293 SC3 cells with doxycycline (CellTiter-Glo, 72 hours); type: cell-based; conditions: T-Rex 293 SC3 cells with increased androgen receptor expression due to doxycycline (10 ng/mL)
Summary of the method: (§1)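 Growth inhibition is measured in an inducible AR-expressing T-Rex 293 clone, SC3, cultured with or without 10 ng/mL doxycycline in hormone-depleted medium. Test compounds are applied for 72 hours. GI50 values derive from CellTiter-Glo 2.0 signal fitted by four-parameter regression.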

[2] = tested on: T-Rex 293 cell line SC3 cells lacking increased expression of androgen receptor protein; test: Cellular growth inhibition assay, T-Rex 293 SC3 cells without doxycycline (CellTiter-Glo, 72 hours); type: cell-based; conditions: T-Rex 293 cell line SC3 cells not exposed to doxycycline (lacking increased androgen receptor expression)
Summary of the method: as §1

VCaP cells = test: Cellular growth inhibition assay for VCaP cells (CellTiter-Glo, 72 hours); type: cell-based, human
Summary of the method: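 Luminescent viability signal after 72 h of compound exposure gave GI50 values by four-parameter nonlinear regression. Compounds were added in 0.5% DMSO to cells plated 24 h earlier at 5000/well in DMEM containing 10% FBS.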

| SMILES | GI50 ([1]; 72 h) [nM] | GI50 ([2]; 72 h) [nM] | GI50 (VCaP cells; Homo sapiens, VCaP, 72 h) [nM] | GI50 [2] [nM] | GI50 [1] [nM] | GI50 (VCaP cells) [nM] |
| --- | --- | --- | --- | --- | --- | --- |
| CC[C@@H]1N=C(c2ccc(C3CCC4(CCCN(c5ccc(C(=O)N[C@H]6CC[C@H](Oc7ccc(C#N)c(Cl)c7)CC6)nn5)C4)CC3)cc2)c2c(sc(C)c2C)-n2c(C)nnc21 (stereo partly drawn) [I-652] | < 500 | > 3000 | < 500 |  |  |  |
| COC[C@@H]1N=C(c2ccc(C3CCC4(CCCN(c5ccc(C(=O)N[C@H]6CC[C@H](Oc7ccc(C#N)c(Cl)c7)CC6)nn5)C4)CC3)cc2)c2c(sc(C)c2C)-n2c(C)nnc21 (stereo partly drawn) [I-654] | < 500 |  | < 500 | > 3000 |  |  |
| Cc1sc2c(c1C)C(c1ccc(CCCC3CCCN(c4ccc(C(=O)N[C@H]5CC[C@H](Oc6ccc(C#N)c(Cl)c6)CC5)nn4)CC3)cc1)=N[C@@H](C)c1nnc(C)n1-2 (stereo partly drawn) [I-669] | < 500 |  | < 500 | > 3000 |  |  |
| Cc1sc2c(c1C)C(c1ccc(OC3CCC4(CCN(c5ccc(C(=O)N[C@H]6CC[C@H](Oc7ccc(C#N)c(Cl)c7)CC6)nn5)C4)C3)cc1)=N[C@@H](C)c1nnc(C)n1-2 (stereo partly drawn) [I-701] |  |  | < 500 | < 500 | < 500 |  |
| Cc1sc2c(c1C)C(c1ccc(OC3CC(CC4CCN(c5ccc(C(=O)N[C@H]6CC[C@H](Oc7ccc(C#N)c(Cl)c7)CC6)nn5)CC4)C3)cc1)=N[C@@H](C)c1nnc(C)n1-2 (stereo partly drawn) [I-544] |  |  |  | > 3000 | < 500 | < 500 |
| Cc1sc2c(c1C)C(c1ccc(OCC3CC4(CCCN(c5ccc(C(=O)N[C@H]6CC[C@H](Oc7ccc(C#N)c(Cl)c7)CC6)nn5)C4)C3)cn1)=NC1(CC1)c1nnc(C)n1-2 (stereo partly drawn) [I-597] |  |  |  | > 3000 | < 500 | < 500 |
| Cc1sc2c(c1C)C(c1ccccc1OCCC1CCN(c3ccc(C(=O)N[C@H]4CC[C@H](Oc5ccc(C#N)c(Cl)c5)CC4)nn3)CC1)=N[C@@H](C)c1nnc(C)n1-2 [I-689] | > 3000 | > 3000 | > 3000 |  |  |  |
| Cc1sc2c(c1C)C(c1ccc(N3CCC4(CCCN(c5ccc(C(=O)N[C@H]6CC[C@H](Oc7ccc(C#N)c(Cl)c7)CC6)nn5)C4)CC3)nc1)=NCc1nnc(C)n1-2 [I-476] | < 500 | > 3000 | < 500 |  |  |  |
| Cc1sc2c(c1C)C(c1ccc(C3CCC4(CCN(c5ccc(C(=O)N[C@H]6CC[C@H](Oc7ccc(C#N)c(Cl)c7)CC6)nn5)CC4)C3)cc1)=N[C@@H](C)c1nnc(C)n1-2 (stereo partly drawn) [I-497] |  |  |  | > 3000 | < 500 | 1500 to 3000 |
| Cc1sc2c(c1C)C(c1ccc(COC3CCC4(CCCN(c5ccc(C(=O)N[C@H]6CC[C@H](Oc7ccc(C#N)c(Cl)c7)CC6)nn5)C4)C3)cc1)=N[C@@H](C)c1nnc(C)n1-2 (stereo partly drawn) [I-514] | < 500 |  |  | < 500 |  | 1500 to 3000 |
| Cc1sc2c(c1C)C(c1ccc(N3CCC4CN(c5ccc(C(=O)N[C@H]6CC[C@H](Oc7ccc(C#N)c(Cl)c7)CC6)nn5)CCC4C3)cc1)=N[C@@H](C)c1nnc(C)n1-2 (stereo partly drawn) [I-554] | < 500 |  | 500 to 1500 | > 3000 |  |  |
| Cc1sc2c(c1C)C(c1ccc(OCC3CC4(CCCN(c5ccc(C(=O)N[C@H]6CC[C@H](Oc7ccc(C#N)c(Cl)c7)CC6)nn5)C4)C3)cn1)=N[C@@H](C)c1nnc(C)n1-2 (stereo partly drawn) [I-483] |  |  |  | < 500 | < 500 | < 500 |
| Cc1sc2c(c1C)C(c1ccc(OC3CC4(CCN(c5ccc(C(=O)N[C@H]6CC[C@H](Oc7ccc(C#N)c(Cl)c7)CC6)nn5)CC4)C3)cn1)=N[C@@H](C)c1nnc(C)n1-2 [I-461] |  |  | < 500 | > 3000 | < 500 |  |
| Cc1sc2c(c1C)C(c1ccc(C3CCC4(CCN(c5ccc(C(=O)N[C@H]6CC[C@H](Oc7ccc(C#N)c(Cl)c7)CC6)nn5)C4)C3)cc1)=N[C@@H](C)c1nnc(C)n1-2 (stereo partly drawn) [I-821, N-[4-(3-chloro-4-cyano-phenoxy)cyclohexyl]-6-[8-[4-[(9S)-4,5,9,13-tetramethyl-3-thia-1,8,11,12-tetrazatricyclo[8.3.0.02,6]trideca-2(6),4,7,10,12-pentaen-7-yl]phenyl]-2-azaspiro[4.4]nonan-2-yl]pyridazine-3-carboxamide] | < 500 | < 500 | < 500 |  |  |  |
| Cc1sc2c(c1C)C(c1ccc(OC3CCC4(CCN(c5ccc(C(=O)N[C@H]6CC[C@H](Oc7ccc(C#N)c(Cl)c7)CC6)nn5)C4)C3)cc1)=N[C@@H](C)c1nnc(C)n1-2 (stereo partly drawn) [I-733] | < 500 | < 500 |  |  |  | < 500 |
| C#Cc1ccc(O[C@H]2CC[C@H](NC(=O)c3ccc(N4CCC(C5CN(c6ccc(C7=NC8(CC8)c8nnc(C)n8-c8sc(C)c(C)c87)nc6)C5)CC4)nn3)CC2)cc1Cl [I-516] | < 500 | > 3000 | > 3000 |  |  |  |
| Cc1sc2c(c1C)C(c1ccc(NCC3CCN(c4ncc(C(=O)N[C@H]5CC[C@H](Oc6ccc(C#N)c(Cl)c6)CC5)cn4)C3)cc1)=NC(Cc1ncco1)c1nnc(C)n1-2 (mixture of isomers) [I-788] |  |  |  | < 500 | < 500 | < 500 |

| SMILES | GI50 ([1]; 72 h) [nM] | GI50 ([2]; 72 h) [nM] | GI50 (VCaP cells; Homo sapiens, VCaP, 72 h) [nM] | GI50 [2] [nM] | GI50 [1] [nM] | GI50 (VCaP cells) [nM] |
| --- | --- | --- | --- | --- | --- | --- |
| Cc1sc2c(c1C)C(c1ccc(C3CCC4(CC3)CCN(c3ccc(C(=O)N[C@H]5CC[C@H](Oc6ccc(C#N)c(Cl)c6)CC5)nn3)C4)cc1)=N[C@@H](C)c1nnc(C)n1-2 (stereo partly drawn) [I-495] |  |  |  | < 500 | > 3000 | < 500 |
| Cc1sc2c(c1C)C(c1cccc(N3CCC4(CC3)CCN(c3ccc(C(=O)N[C@H]5CC[C@H](Oc6ccc(C#N)c(Cl)c6)CC5)nn3)C4)c1)=N[C@@H](C)c1nnc(C)n1-2 [I-685] | < 500 | 500 to 1500 | < 500 |  |  |  |
| Cc1sc2c(c1C)C(c1ccc(CCCC3CCCN(c4ccc(C(=O)N[C@H]5CC[C@H](Oc6ccc(C#N)c(Cl)c6)CC5)nn4)CC3)nc1)=N[C@@H](C)c1nnc(C)n1-2 (stereo partly drawn) [I-672] |  |  |  | < 500 | < 500 | < 500 |
| Cc1sc2c(c1C)C(c1cccc(OC3CCC4(CC3)CCN(c3ccc(C(=O)N[C@H]5CC[C@H](Oc6ccc(C#N)c(Cl)c6)CC5)nn3)C4)c1)=N[C@@H](C)c1nnc(C)n1-2 (stereo partly drawn) [I-747] | < 500 |  |  | < 500 |  | < 500 |
| CC[C@@H]1N=C(c2ccc(N3CCC4(CC3)CC(Cc3ccc(C(=O)N[C@H]5CC[C@H](Oc6ccc(C#N)c(Cl)c6)CC5)nn3)C4)cc2)c2c(sc(C)c2C)-n2c(C)nnc21 [I-612] | < 500 | > 3000 | < 500 |  |  |  |
| Cc1sc2c(c1C)C(c1cccc(CC3CC4(CCN(c5ccc(C(=O)N[C@H]6CC[C@H](Oc7ccc(C#N)c(Cl)c7)CC6)nn5)CC4)C3)c1)=N[C@@H](C)c1nnc(C)n1-2 [I-684] | < 500 | > 3000 | 500 to 1500 |  |  |  |
| Cc1sc2c(c1C)C(c1cccc(CC3CCC4(CC3)CCN(c3ccc(C(=O)N[C@H]5CC[C@H](Oc6ccc(C#N)c(Cl)c6)CC5)nn3)C4)c1)=N[C@@H](C)c1nnc(C)n1-2 (stereo partly drawn) [I-713] |  |  | < 500 | > 3000 | > 3000 |  |
| Cc1sc2c(c1C)C(c1ccc(OC3CCC4(CCCN(c5ccc(C(=O)N[C@H]6CC[C@H](Oc7ccc(C#N)c(Cl)c7)CC6)nn5)C4)C3)cc1)=NC1(CC1)c1nnc(C)n1-2 (stereo partly drawn) [I-526] |  |  |  | 500 to 1500 | < 500 | < 500 |
| Cc1sc2c(c1C)C(c1ccc(OC3CCC4(C3)CN(c3ccc(C(=O)N[C@H]5CC[C@H](Oc6ccc(C#N)c(Cl)c6)CC5)nn3)CCO4)cc1)=NC1(CC1)c1nnc(C)n1-2 (stereo partly drawn) [I-506] | < 500 | > 3000 |  |  |  | 1500 to 3000 |
| Cc1sc2c(c1C)C(c1ccc(OC3CCC4(CCN(c5ccc(C(=O)N[C@H]6CC[C@H](Oc7ccc(C#N)c(Cl)c7)CC6)nn5)C4)C3)cc1)=N[C@@H](C)c1nnc(C)n1-2 (stereo partly drawn) [I-734] |  |  |  | < 500 | < 500 | < 500 |
| Cc1sc2c(c1C)C(c1ccc(C3CCC4(CCN(c5ccc(C(=O)N[C@H]6CC[C@H](Oc7ccc(C#N)c(Cl)c7)CC6)nn5)CC4)C3)cc1)=NC(C(F)(F)F)c1nnc(C)n1-2 (stereo partly drawn) [I-760] |  |  |  | > 3000 | < 500 | < 500 |
| Cc1sc2c(c1C)C(c1ccc(OC3CC(CC4CCN(c5ccc(C(=O)N[C@H]6CC[C@H](Oc7ccc(C#N)c(Cl)c7)CC6)nn5)CC4)C3)cc1)=N[C@@H](C)c1nnc(C)n1-2 (stereo partly drawn) [I-543] | < 500 | > 3000 | < 500 |  |  |  |
| Cc1sc2c(c1C)C(c1ccc(OC3CCC4(C3)CN(c3ccc(C(=O)N[C@H]5CC[C@H](Oc6ccc(C#N)c(Cl)c6)CC5)nn3)CCO4)cc1)=NC1(CC1)c1nnc(C)n1-2 (stereo partly drawn) [I-508] |  |  |  | > 3000 | < 500 | < 500 |
| Cc1sc2c(c1C)C(c1ccc(CC3CCC4(CCCN(c5ccc(C(=O)N[C@H]6CC[C@H](Oc7ccc(C#N)c(Cl)c7)CC6)nn5)C4)C3)cn1)=N[C@@H](C)c1nnc(C)n1-2 (stereo partly drawn) [I-622] | < 500 | < 500 |  |  |  | > 3000 |
| Cc1sc2c(c1C)C(c1ccc(N3CC(C4CCN(c5ccc(C(=O)N[C@H]6CC[C@H](Oc7ccc(C#N)c(Cl)c7)CC6)nn5)C4)C3)cc1)=N[C@@H](C)c1nnc(C)n1-2 (stereo partly drawn) [I-556] |  |  |  | < 500 | < 500 | < 500 |
| Cc1sc2c(c1C)C(c1ccc(N3CC(C4CCN(c5ccc(C(=O)N[C@H]6CC[C@H](Oc7ccc(C#N)c(Cl)c7)CC6)nn5)C4)C3)cc1)=NC1(CC1)c1nnc(C)n1-2 (stereo partly drawn) [I-551] |  |  |  | > 3000 | < 500 | < 500 |
| Cc1sc2c(c1C)C(c1ccc(OC3CCC4(CCCN(c5ccc(C(=O)N[C@H]6CC[C@H](Oc7ccc(C#N)c(Cl)c7)CC6)nn5)C4)C3)cc1)=N[C@@H](C)c1nnc(C)n1-2 (stereo partly drawn) [I-536] | < 500 | > 3000 |  |  |  | > 3000 |
